# According to patent US8802597B2, “Herbicidal pyrimidines” (E I du Pont de Nemours and Company, priority 2003, dated 2014):
# Legend:
# Assay in all cases: Test G pre/postemergence
# Format in all cases: in vivo
# [1] = system: black mustard (Brassica nigra)
# Procedure, shortened: (§1)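 Visual scores from 0 (no effect) to 100 (complete control) were assigned relative to untreated controls 12 to 21 days after treatment. Compounds, formulated in a non-phytotoxic solvent mixture with surfactant, were applied preemergence to planted seed or postemergence to plants at the 1- to 4-leaf stage (2 to 18 cm).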
# [2] = system: broadleaf signalgrass (Brachiaria platyphylla)
# Procedure, shortened: as §1
# [3] = system: common chickweed (Stellaria media); conditions: Preemergence
# Procedure, shortened: as §1
# [4] = system: common mallow (Malva sylvestris)
# Procedure, shortened: as §1
# [5] = system: common ragweed (Ambrosia elatior)
# Procedure, shortened: as §1
# [6] = system: dallisgrass (Paspalum dilatatum)
# Procedure, shortened: as §1
# [7] = system: goosegrass (Eleusine indica)
# Procedure, shortened: as §1
# [8] = system: green foxtail (Setaria viridis)
# Procedure, shortened: as §1
# [9] = system: itchgrass (Rottboellia cochinchinensis)
# Procedure, shortened: as §1
# [10] = system: large crabgrass (Digitaria sanguinalis)
# Procedure, shortened: as §1
# [11] = system: pitted morningglory (Ipomoea lacunosa)
# Procedure, shortened: as §1
# [12] = system: prickly sida (Sida spinosa)
# Procedure, shortened: as §1
# [13] = system: quackgrass (Elytrigia repens)
# Procedure, shortened: as §1
# [14] = system: southern sandbur (Cenchrus echinatus)
# Procedure, shortened: as §1
# [15] = Postemergence, 8 g ai/ha, scale 0 to 100
# [16] = Postemergence, 16 g ai/ha, scale 0 to 100
# [17] = Postemergence, 31 g ai/ha, scale 0 to 100
# [18] = Postemergence, 62 g ai/ha, scale 0 to 100
# [19] = Preemergence, 8 g ai/ha, scale 0-100
# [20] = Preemergence, 16 g ai/ha, scale 0-100
# [21] = Preemergence, 31 g ai/ha, scale 0-100
# [22] = Preemergence, 62 g ai/ha, scale 0-100
# [23] = Preemergence, 125 g ai/ha, scale 0-100
# [24] = Preemergence, 250 g ai/ha, scale 0-100
# [25] = Preemergence, 500 g ai/ha, scale 0 to 100
smiles,measurement,setting,value
"CCOC(=O)c1nc(-c2ccc(Cl)cc2)nc(N)c1Cl [Compound 64, ethyl 6-amino-5-chloro-2-(4-chlorophenyl)-4-pyrimidinecarboxylate]","Plant response rating, Black Mustard",[1]; [15],0
same,"Plant response rating, Black Mustard",[1]; [16],0
same,"Plant response rating, Black Mustard",[1]; [17],0
same,"Plant response rating, Black Mustard",[1]; [18],10
same,"Plant response rating, Black Mustard",[1]; [19],0
same,"Plant response rating, Black Mustard",[1]; [20],0
same,"Plant response rating, Black Mustard",[1]; [21],20
same,"Plant response rating, Black Mustard",[1]; [22],35
same,"Plant response rating, Signalgrass",[2]; [15],0
same,"Plant response rating, Signalgrass",[2]; [16],0
same,"Plant response rating, Signalgrass",[2]; [17],0
same,"Plant response rating, Signalgrass",[2]; [18],30
same,"Plant response rating, Signalgrass",[2]; [19],0
same,"Plant response rating, Signalgrass",[2]; [20],0
same,"Plant response rating, Signalgrass",[2]; [21],0
same,"Plant response rating, Signalgrass",[2]; [22],0
same,"Plant response rating, Chickweed","[3]; 8 g ai/ha, scale 0-100",0
same,"Plant response rating, Chickweed","[3]; 31 g ai/ha, scale 0-100",0
same,"Plant response rating, Chickweed","[3]; 62 g ai/ha, scale 0-100",0
same,"Plant response rating, Mallow",[4]; [15],65
same,"Plant response rating, Mallow",[4]; [16],80
same,"Plant response rating, Mallow",[4]; [17],90
same,"Plant response rating, Mallow",[4]; [18],90
same,"Plant response rating, Mallow",[4]; [19],0
same,"Plant response rating, Mallow",[4]; [21],0
same,"Plant response rating, Mallow",[4]; [22],0
same,"Plant response rating, Ragweed",[5]; [15],75
same,"Plant response rating, Ragweed",[5]; [16],75
same,"Plant response rating, Ragweed",[5]; [17],100
same,"Plant response rating, Ragweed",[5]; [18],100
same,"Plant response rating, Ragweed",[5]; [19],65
same,"Plant response rating, Ragweed",[5]; [20],65
same,"Plant response rating, Ragweed",[5]; [21],65
same,"Plant response rating, Ragweed",[5]; [22],95
same,"Plant response rating, Dallisgrass",[6]; [15],0
same,"Plant response rating, Dallisgrass",[6]; [16],0
same,"Plant response rating, Dallisgrass",[6]; [17],0
same,"Plant response rating, Dallisgrass",[6]; [18],20
same,"Plant response rating, Dallisgrass",[6]; [19],0
same,"Plant response rating, Dallisgrass",[6]; [20],0
same,"Plant response rating, Dallisgrass",[6]; [21],0
same,"Plant response rating, Dallisgrass",[6]; [22],0
same,"Plant response rating, Goosegrass",[7]; [15],0
same,"Plant response rating, Goosegrass",[7]; [16],0
same,"Plant response rating, Goosegrass",[7]; [17],0
same,"Plant response rating, Goosegrass",[7]; [18],20
same,"Plant response rating, Goosegrass",[7]; [19],0
same,"Plant response rating, Goosegrass",[7]; [20],0
same,"Plant response rating, Goosegrass",[7]; [21],0
same,"Plant response rating, Goosegrass",[7]; [22],0
same,"Plant response rating, Foxtail, Green",[8]; [15],0
same,"Plant response rating, Foxtail, Green",[8]; [16],0
same,"Plant response rating, Foxtail, Green",[8]; [17],0
same,"Plant response rating, Foxtail, Green",[8]; [18],0
same,"Plant response rating, Foxtail, Green",[8]; [19],0
same,"Plant response rating, Foxtail, Green",[8]; [20],0
same,"Plant response rating, Foxtail, Green",[8]; [21],0
same,"Plant response rating, Foxtail, Green",[8]; [22],0
same,"Plant response rating, Itchgrass",[9]; [15],0
same,"Plant response rating, Itchgrass",[9]; [16],0
same,"Plant response rating, Itchgrass",[9]; [17],0
same,"Plant response rating, Itchgrass",[9]; [18],60
same,"Plant response rating, Itchgrass",[9]; [19],0
same,"Plant response rating, Itchgrass",[9]; [20],0
same,"Plant response rating, Itchgrass",[9]; [21],0
same,"Plant response rating, Itchgrass",[9]; [22],20
same,"Plant response rating, Crabgrass, Large",[10]; [15],30
same,"Plant response rating, Crabgrass, Large",[10]; [16],50
same,"Plant response rating, Crabgrass, Large",[10]; [17],70
same,"Plant response rating, Crabgrass, Large",[10]; [18],80
same,"Plant response rating, Crabgrass, Large",[10]; [19],0
same,"Plant response rating, Crabgrass, Large",[10]; [20],0
same,"Plant response rating, Crabgrass, Large",[10]; [21],0
same,"Plant response rating, Crabgrass, Large",[10]; [22],35
same,"Plant response rating, Morningglory",[11]; [15],0
same,"Plant response rating, Morningglory",[11]; [16],0
same,"Plant response rating, Morningglory",[11]; [17],20
same,"Plant response rating, Morningglory",[11]; [18],65
same,"Plant response rating, Morningglory",[11]; [19],0
same,"Plant response rating, Morningglory",[11]; [20],0
same,"Plant response rating, Morningglory",[11]; [21],0
same,"Plant response rating, Morningglory",[11]; [22],0
same,"Plant response rating, Prickly Sida",[12]; [15],40
same,"Plant response rating, Prickly Sida",[12]; [16],65
same,"Plant response rating, Prickly Sida",[12]; [17],75
same,"Plant response rating, Prickly Sida",[12]; [18],75
same,"Plant response rating, Prickly Sida",[12]; [19],0
same,"Plant response rating, Prickly Sida",[12]; [20],0
same,"Plant response rating, Prickly Sida",[12]; [21],30
same,"Plant response rating, Prickly Sida",[12]; [22],50
same,"Plant response rating, Quackgrass",[13]; [15],0
same,"Plant response rating, Quackgrass",[13]; [16],20
same,"Plant response rating, Quackgrass",[13]; [17],20
same,"Plant response rating, Quackgrass",[13]; [18],35
same,"Plant response rating, Quackgrass",[13]; [19],0
same,"Plant response rating, Quackgrass",[13]; [20],0
same,"Plant response rating, Quackgrass",[13]; [21],0
same,"Plant response rating, Quackgrass",[13]; [22],0
same,"Plant response rating, Sandbur",[14]; [15],0
same,"Plant response rating, Sandbur",[14]; [16],0
same,"Plant response rating, Sandbur",[14]; [17],20
same,"Plant response rating, Sandbur",[14]; [18],20
same,"Plant response rating, Sandbur",[14]; [19],0
same,"Plant response rating, Sandbur",[14]; [20],0
same,"Plant response rating, Sandbur",[14]; [21],0
same,"Plant response rating, Sandbur",[14]; [22],0
"CCOC(=O)c1nc(C2CC2)nc(N)c1Cl [Compound 4, ethyl 6-amino-5-chloro-2-cyclopropyl-4-pyrimidinecarboxylate]","Plant response rating, Black Mustard",[1]; [22],95
same,"Plant response rating, Black Mustard",[1]; [23],95
same,"Plant response rating, Black Mustard",[1]; [24],100
same,"Plant response rating, Black Mustard",[1]; [25],100
same,"Plant response rating, Signalgrass",[2]; [22],50
same,"Plant response rating, Signalgrass",[2]; [23],70
same,"Plant response rating, Signalgrass",[2]; [24],95
same,"Plant response rating, Signalgrass",[2]; [25],95
same,"Plant response rating, Chickweed","[3]; 62 g ai/ha, scale 0-100",100
same,"Plant response rating, Chickweed","[3]; 125 g ai/ha, scale 0-100",100
same,"Plant response rating, Chickweed","[3]; 250 g ai/ha, scale 0-100",100
same,"Plant response rating, Chickweed","[3]; 500 g ai/ha, scale 0 to 100",100
same,"Plant response rating, Mallow",[4]; [22],100
same,"Plant response rating, Mallow",[4]; [23],100
same,"Plant response rating, Mallow",[4]; [24],100
same,"Plant response rating, Mallow",[4]; [25],100
same,"Plant response rating, Ragweed",[5]; [22],80
same,"Plant response rating, Ragweed",[5]; [23],100
same,"Plant response rating, Ragweed",[5]; [24],100
same,"Plant response rating, Ragweed",[5]; [25],100
same,"Plant response rating, Dallisgrass",[6]; [22],0
same,"Plant response rating, Dallisgrass",[6]; [23],50
same,"Plant response rating, Dallisgrass",[6]; [24],95
same,"Plant response rating, Dallisgrass",[6]; [25],100
same,"Plant response rating, Goosegrass",[7]; [22],10
same,"Plant response rating, Goosegrass",[7]; [23],60
same,"Plant response rating, Goosegrass",[7]; [24],70
same,"Plant response rating, Goosegrass",[7]; [25],90
same,"Plant response rating, Foxtail, Green",[8]; [22],20
same,"Plant response rating, Foxtail, Green",[8]; [23],70
same,"Plant response rating, Foxtail, Green",[8]; [24],100
same,"Plant response rating, Foxtail, Green",[8]; [25],100
same,"Plant response rating, Itchgrass",[9]; [22],70
same,"Plant response rating, Itchgrass",[9]; [23],70
same,"Plant response rating, Itchgrass",[9]; [24],80
same,"Plant response rating, Itchgrass",[9]; [25],95
same,"Plant response rating, Crabgrass, Large",[10]; [22],60
same,"Plant response rating, Crabgrass, Large",[10]; [23],75
same,"Plant response rating, Crabgrass, Large",[10]; [24],100
same,"Plant response rating, Crabgrass, Large",[10]; [25],100
same,"Plant response rating, Morningglory",[11]; [22],100
same,"Plant response rating, Morningglory",[11]; [23],100
same,"Plant response rating, Morningglory",[11]; [24],100
same,"Plant response rating, Morningglory",[11]; [25],100
same,"Plant response rating, Prickly Sida",[12]; [22],85
same,"Plant response rating, Prickly Sida",[12]; [23],100
same,"Plant response rating, Prickly Sida",[12]; [24],100
same,"Plant response rating, Prickly Sida",[12]; [25],100
same,"Plant response rating, Quackgrass",[13]; [22],60
same,"Plant response rating, Quackgrass",[13]; [23],90
same,"Plant response rating, Quackgrass",[13]; [24],100
same,"Plant response rating, Quackgrass",[13]; [25],100
same,"Plant response rating, Sandbur",[14]; [22],30
same,"Plant response rating, Sandbur",[14]; [23],80
same,"Plant response rating, Sandbur",[14]; [24],90
same,"Plant response rating, Sandbur",[14]; [25],100
